The target in test [1] is β-adrenergischen Rezeptoren. Description: β-receptor binding test in vitro: inhibition of 3H-dihydroalprenolol binding to brain membrane preparation. Also noted: species or system Kalb. The following applies: calf brain caudate membranes; 10 min at 37°C; determined graphically; read-out: IC50 (Hemmung der spezifischen Bindung von 1,0 nM 3H-Dihydroalprenolol). From the text: Die β-adrenergische Rezeptorbindungseigenschaften, welche β-adrenergische regulierende, z.B. blockierende Wirkung der genannten neuen Verbindungen anzeigen, werden in einem Test der β-Rezeptorbindung in vitro nach einer Modifikation des Verfahrens bestimmt, wie es in Life Sciences 17, 993 (1975) beschrieben ist.
^3H-Dihydroalprenolol wird spezifisch von Gehirnmembran-Präparaten gebunden und diese Wirkung wird durch bekannte Agonisten und Antagonisten von β-adrenergischen Rezeptoren gehemmt.
Beim Bindungstest werden 2 ml-Proben der Suspension eines Membranpräparates (welches etwa 20 mg Kalbshirn-Caudaten entspricht) in eisgekühlte Reagenzgläser gegeben, welche ^3H-Dihydroalprenolol mit oder ohne Testverbindung, frisch gelöst in 0,1% Ascorbinsäure, enthalten. Die Endkonzentration von ^3H-Dihydroalprenolol ist 1,0 nM. Die Testverbindungen werden innerhalb einer weiten Konzentrationsreihe geprüft. Die Reagenzgläser werden 10 Minuten bei 37°C inkubiert, und die Suspensionen dann sofort unter Vakuum durch Fiberglasfilter filtriert. Die Filter werden mit 15 ml kalter 50 mM Tris-HCi (pH 7,9 bei 25°C) gewaschen, zusammen mit 12 ml Szintillationslösung in Szintillationsampullen gegeben, zunächst 90 Minuten geschüttelt und dann mit dem Zählrohr auf Radioaktivität untersucht.
Die IC50 Werte (welche die Konzentration der Testverbindungen angeben, die nötig ist, um die spezifische Bindung der 1,0 nM ^3H-Dihydrcal- prenolol-Lösung um 50% zu verringern) werden graphisch bestimmt.
Die erfindungsgemässen Verbindungen hemmen die β-Rezeptorbildung des Dihydroalprenolols mit IC50 Werten von […] oder darunter. Beispielsweise weisen die Verbindungen der Beispiele 1, 2a, 3b und 3c IC50-Werte von etwa […] auf.

For test [2], the system named is spontan hypertensiven Ratten. Put plainly: Systolic blood pressure and heart rate in conscious spontaneously hypertensive rats (tail sphygmomanometry), oral dosing. Format: in vivo. The following applies: for Abnahme des Bludrucks: second day, 2 hours after dosing; for antihypertensive Wirkung / bradycardische (d.h. die Herzfrequenz herabsetzende) Wirkung: low doses of 10 mg/kg or below. From the text: Die in vivo blutdrucksenkende Wirkung wird entweder direkt mit einem Katheter, der z.B. in die fumurale Arterie eines Hundes eingeführt ist, oder indirekt durch Sphygmomanometrie am Rattenschwanz, und einem Uebertragungsinstrument registriert. Der Bludruck wird vor und nach der Verabreichung des Wirkstoffes in mmHg bestimmt.
So kann die antihypertensive Wirkung und die Reduktion der Herzfrequenz bei spontan hypertensiven Ratten nachgewiesen werden, indem man indirekt durch Sphygmomanometrie am Rattenschwanz den systolischen Druck misst. Wache Ratten werden einzeln in Käfige gesperrt, welche sich in einem angenehm warmen Raum befinden. Nachdem Kontrollwerte für Blutdruck und Herzfrequenz gemessen words-n sind, werden die Testverbindungen oral einmal täglich an 2 oder 4 aufeinanderfolgenden Tagen verabreicht. Der Blutdruck wird gewöhnlich 24 Stunden nach der ersten Dosis und dann jeweils 2,0, 4,0 und 24 Stunden nach jeder täglichen Dosis bestimmt, und die Wirkung mit der bei solchen Ratten verglichen, die mit dem Trägermaterial behandelt worden sind.
Gemäss der vorher beschriebenen Methode werden wache Ratten einzeln in Käfige gestellt. Zuerst werden die Kontrollwerte des Blutdrucks ermittelt und dann die einzelnen Testverbindungen einmal täglich, an zwei aufeinanderfolgenden Tagen, oral verabreicht.

For a further test, the system named is normotensiven Kaninchen. Description: Intraocular pressure reduction in normotensive rabbits, topical application (anti-glaucoma effect). Format: in vivo. As to the method:
Die Anticlaucoma-Wirkung der erfindungsgemässen Verbindungen ist an der intraokularen Druckverminderung abzulesen, die an Säugetieren, z.B. bei normotensiven Kaninchen, im wesentlichen nach der von D.E. Potter und J.M. Rowland in Experimental Eye Research 27, 615-625, (1978) beschriebenen Methodik nachgewiesen werden kann. Die intraokulare Druckverminderung wird wie folgt bestimmt: 2 x 50 µl einer Lösung der Testverbindung in sterilisiertem Wasser von unterschiedlicher Konzentration werden bei männlichen, neuseeländischen Albinokaninchen, die 3-4 kg wiegen, jeweils auf ein Auge appliziert, und 2 x 50 µl des Trägermaterials werden zur Kontrolle auf das kontralaterale Auge appliziert. Der intraokulare Druck (in mm Hg) in jedem Auge wird direkt vor der Behandlung tonometrisch gemessen, und dann 1,2 bzw. 3 Stunden nach der Verabreichung. Es wird der Unterschied des intraokularen Druckes zwischen behandeltem Auge und Kontrollauge bestimmt.
Beispielsweise zeigen die erfindungsgemässen Verbindungen der Beispiele 1 und 2a, bei einer Konzentration von etwa 20 bzw.

Test [3] relates to renal hypertensiven Hunden. Description: Arterial pressure and heart rate in conscious renal hypertensive dogs, oral dosing. To be noted: oral dose 10 mg/kg. Format: in vivo, Hunde. From the text:
Die antihypertensive und bradycardische Wirkung wird ebenso an wachen, chronisch hypertensiven Hunden untersucht; die Hypertension wird dabei durch eine Schwächung der Nierenfunktion erzeugt. Der arterielle Druck wird durch direkte perkutane Punktion der femuralen Arterie, unter Verwendung einer Nadel, die an ein Uebertragungsinstrument angeschlossen ist, registriert. Nach der Aufnahme von Kontrolldaten werden die Hunde oral einmal täglich, 4 Tage lang, mit Kapseln, welche die Testverbindung enthalten, behandelt. Der Blutdruck und die Herzfrequenz werden jeweils 1,5, 3, 6 und 24 Stunden nach der täglichen Dosis bestimmt und die Ergebnisse mit den vor der Behandlung erhaltenen Kontrollwerten verglichen.

[4] abbreviates: 50 mg/kg p.o. once daily for 2 days.

In general, IC50 refers to the concentration that inhibits the measured activity by half. As for `C=CCOc1ccccc1OCC(O)CN[C@H]1CC[C@@H](N2CCNC2=O)CC1` (mixture of isomers) [Beispiel 1, cis-1-(4-[3-(o-Allyloxyphenoxy)-2-hydroxypropylamino]-cyclohexyl)-2-imidazolidinon-hemifumarat], the IC50 in test [1] was around 80 nM. In test [2] (setting [4]), the “Abnahme des Bludrucks” value is -79.3 mm Hg. Also, in test [2], the “antihypertensive Wirkung” value is given as “deutliche” and the “bradycardische (d.h. die Herzfrequenz herabsetzende) Wirkung” value (“bradycardische” below) is on record as “deutliche”. Besides, in the test on normotensiven Kaninchen (concentration about 20 nM), the “Verminderung des intraokularen Druckes” value is given as “deutliche Verminderung”. Moreover, in test [3], the Herzfrequenz result is recorded as “herabsetzen” and the “mittlerer arterieller Druck” value is listed as “ununterbrochene Verringerung”.

In the case of `C#CCOc1ccccc1OCC(O)CN[C@H]1CC[C@H](N2CCNC2=O)CC1` (mixture of isomers) [Beispiel 3c], the concentration for half-maximal inhibition (IC50) in test [1] was around 4 nM. The “Abnahme des Bludrucks” value in test [2] (setting [4]) was -30.0 mm Hg.

Consider `O=C1NCCN1[C@H]1CC[C@@H](NCC(O)COc2ccccc2OCC2CC2)CC1` (mixture of isomers) [Beispiel 3m], for which, in test [2], the “antihypertensive Wirkung” value is given as “deutliche” and the “bradycardische” value is “deutliche”. For the same compound, in test [3], the Herzfrequenz entry is “herabsetzen” and the “mittlerer arterieller Druck” value was “ununterbrochene Verringerung”.

Turning to `O=C1NCCN1[C@H]1CC[C@@H](NC[C@H](O)COc2ccccc2OCC2CC2)CC1` [Beispiel 2a, (S)-cis-1-(4-[3-(o-Cyclopropylmethoxyphenoxy)-2-hydroxypropylamino]-cyclohexyl)-2-imidazolidinon-hemifumarat], in test [1], the IC50 was around 5 nM. In test [2] (30 mg/kg p.o. once daily for 2 days), the “Abnahme des Bludrucks” value is -75.5 mm Hg. In test [2], the “antihypertensive Wirkung” value was “deutliche” and the “bradycardische” value was “deutliche”. For the same compound, the “Verminderung des intraokularen Druckes” value in the test with normotensiven Kaninchen (concentration about 6,4 nM) was “deutliche Verminderung”.

Turning to `COc1ccccc1OCC(O)CN[C@H]1CC[C@@H](N2CCNC2=O)CC1` (stereo partly drawn) [Beispiel 3a], the “Abnahme des Bludrucks” value in test [2] (setting [4]) was -39.3 mm Hg.

Consider `C#CCOc1cccc(OCC(O)CN[C@H]2CC[C@@H](N3CCNC3=O)CC2)c1` (stereo partly drawn) [Beispiel 3d], for which the “Abnahme des Bludrucks” value in test [2] (setting [4]) is reported as -52.3 mm Hg.

With `N#Cc1ccccc1OCC(O)CN[C@H]1CC[C@@H](N2CCNC2=O)CC1` (stereo partly drawn) [Beispiel 3f], in test [2] (setting [4]), the “Abnahme des Bludrucks” value is recorded as -11.0 mm Hg.

On to `N#Cc1ccccc1OCC(O)CN[C@H]1CC[C@H](N2CCNC2=O)CC1` (stereo partly drawn) [Beispiel 3g], for which the “Abnahme des Bludrucks” value in test [2] (setting [4]) is -33.0 mm Hg.

Take `O=C1NCCN1[C@H]1CC[C@@H](NCC(O)COc2ccccc2-n2cccc2)CC1` (stereo partly drawn) [Beispiel 3h]: the “Abnahme des Bludrucks” value in test [2] (setting [4]) is given as -68.0 mm Hg.

For the compound `COCCc1ccc(OCC(O)CN[C@H]2CC[C@@H](N3CCNC3=O)CC2)cc1` (stereo partly drawn) [Beispiel 3k], the “Abnahme des Bludrucks” value in test [2] (setting [4]) is recorded as -17.6 mm Hg.

The values are drawn from EP0096006A2, “3-(Ureidocyclohexylamino)-propane-1,2-diol derivatives, process for their preparation, pharmaceutical preparations containing these compounds and their therapeutical use” (CIBA-GEIGY AG, priority 1982, dated 1983).
